Test results as given in patent US11229680B2, “Autophagy inhibitors” (The Hong Kong University of Science and Technology, priority 2017, dated 2022).
“Also recorded” adds a separate entry of the source.

Legend:
GABARAP = assay: ITC binding to GABARAP; set-up: species or system human; conditions: for selectivity towards GABARAP proteins (in words): GABARAP versus LC3, FIGS. 2E and 4C
[1] = target: LC3s (LC3A, LC3B, LC3C) (Homo sapiens); assay: ITC binding to LC3s
SQST-1::GFP = SQST-1::GFP aggregate accumulation in C. elegans expressing the peptides; format: in vivo
Description: We next determined whether the AnkB WT peptide blocks autophagy in C. elegans. Autophagy is required for degradation of a variety of protein substrates, including the C. elegans p62 homolog SQST-1 during development (Tian et al., 2010). In the wild type animals, SQST-1::GFP is weakly expressed and diffusely localized in the cytoplasm, while numerous SQST-1 aggregates accumulate in autophagy mutants (Tian et al., 2010). The AnkB WT peptide fused with the Cherry reporter (Cherry::AnkB WT) or Cherry::AnkB WR was expressed under the control of the nfya-1 promoter, which is expressed ubiquitously from the embryonic to adult stages. The expression plasmids were injected into animals carrying integrated SQST-1::GFP reporter (bpIs151) and transgenic lines were obtained and analyzed.
Similarly, we also tested the blocking effect of AnkG peptides in C. elegans. […] This observation is somewhat different from that in mammalian heterologous cells. This may be explained by the different roles of the two families in different organisms. In mammal, p62 degradation is dependent on LC3 but not GABARAP (Maruyama et al., 2014), so blocking GABARAP binding has minimal effect on p62 degradation. However, in C. elegans, LGG-1 acts upstream to LGG-2 (Manil-Segalen et al., 2014; Wu et al., 2015), so blocking either of them will lead to defect in SQST-1 degradation.
Although a large collection of autophagy mutants were isolated from genetic screens (Tian et al., 2010), assays to inhibit autophagy activity in a spatiotemporal manner are not available. We investigated whether the AnkB peptide can block autophagy in a tissue- and temporal-specific manner. The AnkB peptide was expressed under the control of tissue-specific promoters, including the promoter of myo-3 for body wall muscle cells, y37A1B.5 for hypodermal cells and vha-6 for intestinal cells. The expression constructs were injected into animals carrying the corresponding tissue-specific SQST-1::GFP expression integrated lines.
We also examined whether the AnkB peptide can impair autophagy in a temporal control manner. The expression of AnkB WT was driven by the promoter of col-19, which is expressed in hypodermal cells from the young adult stage onwards.

[2] = system: LC3-positive puncta in COS7 cells; assay: LC3-positive puncta in starved COS7 cells; format: cell-based; conditions: COS7 cells over-expressing mCherry-tagged peptide, nutrients deprivation
Description: (§1) We used the well-established cultured COS7 cells for assessing autophagy inhibitions by the AnkB/G LIR peptides over-expressed in the cells. We quantified the numbers of endogenous LC3- or GABARAP-positive puncta, which represent LC3 or GABARAP-containing autophagic structures, as readouts to quantify autophagy inhibitions (Klionsky et al., 2016; Mizushima et al., 2010). After nutrients deprivation, obvious accumulations of LC3- or GABARAP-positive puncta could be observed in cells over-expressing mCherry only, indicating induction of autophagy by starvation (FIG. 6C6&E6). […] In contrast, expression of the mCherry-AnkB WR peptide had no impact on the LC3- or GABARAP-puncta numbers (i.e. with the same puncta numbers as expressing the mCherry vector control; FIG. 6C-F).

[3] = system: p62-positive puncta in COS7 cells; assay: p62-positive puncta in starved COS7 cells; format: cell-based; conditions: COS7 cells expressing mCherry-tagged peptide, starvation
Description: We further quantified the level of p62, one of the best studied selective autophagy substrates, to monitor the autophagic flux in COS7 cells expressing various AnkB/G LIR peptides under the starvation condition (Klionsky et al., 2016; Mizushima et al., 2010). Upon autophagy induction, p62 forms aggregates via its LIR motif-mediated interactions to Atg8s and subsequent incorporation into autophagosomes (Bjorkoy et al., 2005; Pankiv et al., 2007). Only a relatively low and steady level of p62 aggregates is formed if autophagy flux is normal (i.e. p62-positive autophagosomes are steadily cleared by fusing with lysosomes; (Bjorkoy et al., 2005)), and this is indeed the case when cells were expressed with the mCherry vector control (FIG. 7F). […] This is consistent with a previous siRNA-based study showing that knockdown of LC3 but not GABARAP causes p62 accumulation in COS7 cells (Maruyama et al., 2014). Taken together, the above cell-based assays reinforce our earlier conclusion derived from biochemical and structural studies, that the AnkB WT peptide can function as potent autophagy inhibitor by targeting all members of the Atg8 family and the AnkG WT or ER peptides can selectively target the GABARAPs and spare the LC3s.

[4] = system: GABARAP-positive puncta in COS7 cells; assay: GABARAP-positive puncta in starved COS7 cells; format: cell-based; conditions: COS7 cells over-expressing mCherry-tagged peptide, nutrients deprivation
Description: as §1

LGG-1 = LGG-1 (Caenorhabditis elegans, UniProt Q09490); assay: ITC binding to purified LGG-1; set-up: species or system C. elegans
LGG-1, sequence (Q09490 1-116 limits assumed): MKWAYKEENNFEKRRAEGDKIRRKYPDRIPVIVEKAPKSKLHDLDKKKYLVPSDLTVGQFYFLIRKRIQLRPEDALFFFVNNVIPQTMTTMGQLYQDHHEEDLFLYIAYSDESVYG
Description: (§2) C. elegans provides an ideal platform to study autophagy and especially to investigate roles of different members of Atg8 in autophagy, because worms contain both GABARAP and LC3 subfamily Atg8s and yet simple enough with one gene for each subfamily (worm lgg-1 and lgg-2 are […] of GABARAP and LC3, respectively). It has also been shown earlier on that lgg-1 and lgg-2 act non-redundantly in autophagy (Wu et al., 2015). Prior to performing autophagy assays in worms, we measured the bindings of various AnkB/G LIR peptides to purified LGG-1 and LGG-2 using the same method as we have described for FIGS. 1&3.

LGG-2 = target: T1, LGG-2 (Caenorhabditis elegans, UniProt Q23536); assay: ITC binding to purified LGG-2; set-up: species or system C. elegans
T1 sequence (Q23536 1-130): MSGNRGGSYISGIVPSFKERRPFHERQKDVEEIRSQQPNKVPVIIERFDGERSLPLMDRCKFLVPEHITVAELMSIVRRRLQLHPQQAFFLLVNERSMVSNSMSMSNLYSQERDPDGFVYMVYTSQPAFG
Description: as §2

C. elegans [5] = assay: C. elegans life span; format: in vivo
Description: Autophagy is known to regulate the adult worm aging process. […] The autophagy defect caused by AnkB was weaker than that in autophagy mutants.

C. elegans [6] = assay: C. elegans hatching and development; format: in vivo; conditions: Pnfya-1::Cherry fusion
Description: Autophagy plays critical roles in various physiological processes occurring during development or in adult C. elegans (Zhang et al., 2015). Fewer autophagy mutants develop into larvae. […] 60.8% embryos expressing the AnkB WT peptide hatched, compared to 96.9% of embryos expressing AnkB WR (FIG. 8G). Autophagy mutants also grow slowly. […] Thus, the AnkB WT peptide blocks autophagy during C. elegans development.

[7] = mCherry::AnkG peptides, embryonic stage (FIG. 10B-D)

AnkG LIR C-helix alone: AnkG LIR C-helix alone (aa 1993-2010) (SSEEIREARQQAAASQSP; UniProt Q12955 1993-2010, looked up, fragment)
binding to GABARAP (in words) (GABARAP; ITC): no detectable binding

E1599R modification of AnkB: AnkB LIR peptide with E1599R modification (VEEEWVIVSDERIEEARQKAPLEITEY; AnkB E1599R human recombinant peptide, prepared in the lab)
selectivity towards GABARAP proteins (in words) (GABARAP): increase in selectivity towards GABARAP proteins

AnkG W1989R: AnkG LIR with Trp1989 substituted by Arg; negative and specificity control (PEDDRTEFSSEEIREARQAAASHAPS; AnkG W1989R rat recombinant peptide, prepared in the lab)
binding to LC3 (in words) [1]: dramatic weakening
SQST-1::GFP aggregates (SQST-1::GFP; [7]): no SQST-1::GFP aggregates
LC3-positive puncta number [2]: did not see any noticeable changes
binding to GABARAP (in words) (GABARAP; ITC): dramatic weakening
p62-positive puncta versus mCherry vector control [3]: neither of the AnkB/G WR peptides could induce p62-positive puncta increase
GABARAP-positive puncta number [4]: did not see any noticeable changes

VEEEWVIVSDEEIEEARQKAPLEITEY [AnkB LIR, recombinant peptide from natural human 440 kD AnkB residues 1588-1614]
SQST-1::GFP aggregates (SQST-1::GFP; Cherry fusion, FIG. 8, embryo): a large number of SQST-1::GFP aggregates accumulated
SQST-1::GFP aggregates (SQST-1::GFP; Cherry fusion, FIG. 8, larvae): a large number of SQST-1::GFP aggregates
SQST-1::GFP aggregates (SQST-1::GFP; Cherry fusion, nfya-1 promoter (ubiquitous), multiple tissues, embryonic to adult stages): accumulated a large number of SQST-1::GFP aggregates
SQST-1::GFP aggregates (SQST-1::GFP; col-19 promoter (hypodermal cells from young adult stage onwards), adult): adult-specific accumulation of SQST-1::GFP aggregates
SQST-1::GFP aggregates (SQST-1::GFP; col-19 promoter, embryonic to L4 larval stages (no peptide expression yet), listed as AnkB WT): no aggregates were found; also recorded: no SQST-1::GFP aggregates
SQST-1::GFP aggregates (SQST-1::GFP; mCherry fusion, hypodermal cells, embryo (FIG. 9)): a large number of SQST-1::GFP aggregates accumulate
SQST-1::GFP aggregates (SQST-1::GFP; mCherry fusion, hypodermis, L4 larvae (FIG. 9)): a large number of SQST-1::GFP aggregates accumulate
SQST-1::GFP aggregates (SQST-1::GFP; myo-3 promoter, muscle cells, L4 larvae): SQST-1::GFP aggregates accumulate
dependence of SQST-1::GFP aggregates on peptide expression level (SQST-1::GFP; myo-3 promoter, muscle cells, L4 larvae (FIG. 10W-Y), listed as AnkB WT): correlate with the degree of autophagy inhibition; also recorded: increases with increasing expression
SQST-1::GFP aggregates (SQST-1::GFP; myo-3 promoter, muscle, embryo): a large number of SQST-1::GFP aggregates accumulate
SQST-1::GFP aggregates (SQST-1::GFP; tissue-specific promoters myo-3, y37A1B.5, vha-6, embryonic to adult stages): a large number of SQST-1::GFP aggregates accumulated
SQST-1::GFP aggregates (SQST-1::GFP; vha-6 promoter, intestine cells, embryo): SQST-1::GFP aggregates accumulate
SQST-1::GFP aggregates (SQST-1::GFP; vha-6 promoter, intestine cells, larvae (FIG. 10S, 10T)): SQST-1::GFP aggregates accumulate
binding to LGG-1 (in words) (LGG-1): binds very strongly
LC3-positive puncta number [2]: reduced the LC3- and GABARAP-puncta to the background level
binding to LGG-2 (in words) (LGG-2; purified LGG-2): binds very strongly
affinity to GABARAP higher than AnkG LIR (GABARAP; ITC): about 10 fold
p62-positive puncta versus mCherry vector control [3]: dramatically increased
GABARAP-positive puncta number [4]: reduced the LC3- and GABARAP-puncta to the background level
Median lifespan (C. elegans [5]; Pmyo-3::ch:: fusion (muscle)): 18.12 days
life span compared to animals expressing Cherry::AnkB WR (C. elegans [5]; Pnfya-1::Cherry fusion): dramatically shortened the life span
Median lifespan (C. elegans [5]; Pnfya-1::ch:: fusion (ubiquitous)): 16.32 days
Median lifespan (C. elegans [5]; Pvha-6::ch:: fusion (intestine)): 18.87 days
Median lifespan (C. elegans [5]; Py37a1b.5::ch:: fusion (hypodermal cells)): 16.64 days
mean life span (C. elegans [5]; expressed in hypodermal cells): slightly reduced the mean life span
life span compared to animals expressing Cherry::AnkB WR (C. elegans [5]; expressed in muscle cells and intestinal cells): did not significantly reduce the life span
additional time for embryos to develop into L1 larvae compared to AnkB WR (C. elegans [6]): approximately two more hours
additional time to develop into young adults compared to AnkB WR (C. elegans [6]): ~6 h
embryos hatched (hatch rate) (C. elegans [6]): 60.8%

E1996R modification of AnkG: AnkG LIR peptide with E1996R modification (PEDDWTEFSSERIREARQAAASHAPS; AnkG E1996R rat recombinant peptide, prepared in the lab)
selectivity towards GABARAP proteins (in words) (GABARAP): increase in selectivity towards GABARAP proteins

PEDDWTRFSSEEIREARQAAASHAPS (AnkG E1991R rat recombinant peptide, prepared in the lab) [modified from rat 480 kD AnkG residues 1985-2010]
SQST-1::GFP aggregates (SQST-1::GFP; Cherry fusion, hyp7 promoter, epidermis, embryonic to adult stages): caused accumulation of SQST-1::GFP aggregates
SQST-1::GFP aggregates (SQST-1::GFP; Phyp7::mCherry::AnkG peptides, hypodermis, L4 larvae): a large number of SQST-1::GFP aggregates accumulate
SQST-1::GFP aggregates (SQST-1::GFP; [7]): accumulation of SQST-1::GFP aggregates
binding to LGG-1 (in words) (LGG-1): retained strong binding
LC3-positive puncta number [2]: essentially no impact
weaker affinity towards LGG-2 than LGG-1 (LGG-2): ~1,000 fold
selectivity towards GABARAP proteins (in words) (GABARAP): increase in selectivity towards GABARAP proteins
binding to GABARAP (in words) (GABARAP; ITC): slightly weaker affinity
p62-positive puncta versus mCherry vector control [3]: no statistically significant increase
GABARAP-positive puncta number [4]: potently inhibited
